# According to PMC12260505, “First-in-Human Phase I/IIa Study of the First-in-Class CDK2/4/6 Inhibitor PF-06873600 Alone or with Endocrine Therapy in Patients with Breast Cancer” (Clinical Cancer Research, 2025):
# Test: Adverse events graded by NCI CTCAE version 4.03, phase I/IIa study
# Type: in vivo
# Procedure: Part 1 included adult patients with HR^+/HER2^− advanced breast cancer or mBC (third- or fourth-line setting), locally recurrent/advanced or metastatic TNBC, or advanced platinum-resistant epithelial ovarian cancer/fallopian tube cancer/primary peritoneal cancer who received oral PF-06873600 at doses of 1 to 50 mg twice daily or oral PF-06873600 plus ET (letrozole or fulvestrant). Primary endpoints for part 1 dose escalation determined safety and tolerability to define dose-limiting toxicities (DLT), estimate the maximum tolerated dose, and select the recommended dose for expansion (RDE). Safety endpoints included adverse events (AE) characterized by type, frequency, severity [as graded by NCI Common Terminology Criteria for Adverse Events (CTCAE) version 4.03], timing, seriousness, and relationship to study therapy. Laboratory abnormalities were characterized by type, frequency, severity (as graded by NCI CTCAE version 4.03), timing, vital sign abnormalities, and heart rate–corrected QT interval (e.g., QTcF). Secondary endpoints included PK, preliminary antitumor activity as assessed using RECIST version 1.1, time-to-event endpoints including objective response rate (ORR), duration of response (DoR), progression-free survival (PFS), time to progression (TTP), and modulation of tumor CDK biomarkers [phosphorylated Rb (pRb), Ki67]. Exploratory endpoints included molecular profiling of tumor and ctDNA and the relationship to clinical outcome.
# AEs were graded by NCI CTCAE version 4.03.
# [1] = Part 2C 25 mg BID IR + Fulvestrant, N = 28
# [2] = parts 1 and 2, N = 151, all cycles
smiles,measurement,setting,value
C[C@@]1(O)CCC[C@H]1n1c(=O)c(C(F)F)cc2cnc(NC3CCN(S(C)(=O)=O)CC3)nc21 [PF-06873600],"Treatment-related TEAE, Headache, Grade 3/4",[1],0 n (%)
same,"Treatment-related TEAE, Headache, Grade 5",[1],0 n (%)
same,"Treatment-related TEAE, Headache, Total",[1],9 (32.1) n (%)
same,"Treatment-related TEAE, Leukopenia, Grade 1",[1],3 (10.7) n (%)
same,"Treatment-related TEAE, Leukopenia, Grade 2",[1],3 (10.7) n (%)
same,"Treatment-related TEAE, Leukopenia, Grade 3/4",[1],0 n (%)
same,"Treatment-related TEAE, Leukopenia, Grade 5",[1],0 n (%)
same,"Treatment-related TEAE, Leukopenia, Total",[1],6 (21.4) n (%)
same,"Treatment-related TEAE, Nausea, Grade 1",[1],12 (42.9 ) n (%)
same,"Treatment-related TEAE, Nausea, Grade 2",[1],7 (25.0) n (%)
same,"Treatment-related TEAE, Nausea, Grade 3/4",[1],0 n (%)
same,"Treatment-related TEAE, Nausea, Grade 5",[1],0 n (%)
same,"Treatment-related TEAE, Nausea, Total",[1],19 (67.9 ) n (%)
same,"Treatment-related TEAE, Neutropenia, Grade 1",[1],1 (3.6) n (%)
same,"Treatment-related TEAE, Neutropenia, Grade 2",[1],2 (7.1) n (%)
same,"Treatment-related TEAE, Neutropenia, Grade 3/4",[1],6 (21.4) n (%)
same,"Treatment-related TEAE, Neutropenia, Grade 5",[1],0 n (%)
same,"Treatment-related TEAE, Neutropenia, Total",[1],9 (32.1) n (%)
same,"Treatment-related TEAE, Thrombocytopenia, Grade 1",[1],1 (3.6) n (%)
same,"Treatment-related TEAE, Thrombocytopenia, Grade 2",[1],0 n (%)
same,"Treatment-related TEAE, Thrombocytopenia, Grade 3/4",[1],1 (3.6) n (%)
same,"Treatment-related TEAE, Thrombocytopenia, Grade 5",[1],0 n (%)
same,"Treatment-related TEAE, Thrombocytopenia, Total",[1],2 (7.1) n (%)
same,"Treatment-related TEAE, Vomiting, Grade 1",[1],8 (28.6) n (%)
same,"Treatment-related TEAE, Vomiting, Grade 2",[1],4 (14.3) n (%)
same,"Treatment-related TEAE, Vomiting, Grade 3/4",[1],0 n (%)
same,"Treatment-related TEAE, Vomiting, Grade 5",[1],0 n (%)
same,"Treatment-related TEAE, Vomiting, Total",[1],12 (42.9 ) n (%)
same,"All-causality SAE, abdominal pain","parts 1 and 2, 151 patients",2.0%
same,"All-causality SAE, colitis","parts 1 and 2, 151 patients",2.0%
same,"All-causality SAE, febrile neutropenia","parts 1 and 2, 151 patients",3.3%
same,"All-causality SAE, hypotension","parts 1 and 2, 151 patients",2.0%
same,"All-causality TEAE, alopecia","parts 1 and 2, 151 patients",28.5%
same,"All-causality TEAE, anemia","parts 1 and 2, 151 patients",44.4%
same,"All-causality TEAE, constipation","parts 1 and 2, 151 patients",25.2%
same,"All-causality TEAE, diarrhea","parts 1 and 2, 151 patients",22.5%
same,"All-causality TEAE, fatigue","parts 1 and 2, 151 patients",43.7%
same,"All-causality TEAE, headache","parts 1 and 2, 151 patients",29.1%
same,"All-causality TEAE, leukopenia","parts 1 and 2, 151 patients",25.8%
same,"All-causality TEAE, nausea","parts 1 and 2, 151 patients",62.9%
same,"All-causality TEAE, neutropenia","parts 1 and 2, 151 patients",37.7%
same,"All-causality TEAE, vomiting","parts 1 and 2, 151 patients",35.8%
same,"All-causality TEAEs, any, patients","parts 1 and 2, 151 patients",97.4%
same,"All-causality serious adverse events (SAE), patients","parts 1 and 2, 151 patients",22.5%
same,"Grade 3 all-causality TEAEs, patients","parts 1 and 2, 151 patients",34.4%
same,"Grade 3 and grade 4 all-causality TEAEs, patients","parts 1 and 2, 151 patients",45.7%
same,"Grade 3 treatment-related TEAEs, patients","parts 1 and 2, 151 patients",25.8%
same,"Grade 4 all-causality TEAEs, patients","parts 1 and 2, 151 patients",11.3%
same,"Grade 4 treatment-related TEAEs, patients","parts 1 and 2, 151 patients",9.9%
same,"TEAE leading to dose interruptions, anemia","parts 1 and 2, 151 patients",11.3%
same,"TEAE leading to dose interruptions, nausea","parts 1 and 2, 151 patients",11.3%
same,"TEAE leading to dose interruptions, neutropenia","parts 1 and 2, 151 patients",17.9%
same,"TEAE leading to dose reductions, fatigue","parts 1 and 2, 151 patients",5.3%
same,"TEAE leading to dose reductions, nausea","parts 1 and 2, 151 patients",4.6%
same,"TEAE leading to dose reductions, neutropenia","parts 1 and 2, 151 patients",6.0%
same,"TEAEs leading to discontinuation, patients","parts 1 and 2, 151 patients",7.3%
same,"TEAEs leading to dose interruptions, patients","parts 1 and 2, 151 patients",51.7%
same,"TEAEs leading to dose reductions, patients","parts 1 and 2, 151 patients",21.2%
same,"Treatment-related SAE, colitis","parts 1 and 2, 151 patients",1.3%
same,"Treatment-related SAE, febrile neutropenia","parts 1 and 2, 151 patients",3.3%
same,"Treatment-related SAE, neutropenia","parts 1 and 2, 151 patients",1.3%
same,"Treatment-related SAE, stomatitis","parts 1 and 2, 151 patients",1.3%
same,"Treatment-related SAEs, patients","parts 1 and 2, 151 patients",8.6%
same,"Treatment-related TEAE, Alopecia, Grade 1",[2],21 (13.9) n (%)
same,"Treatment-related TEAE, Alopecia, Grade 2",[2],21 (13.9) n (%)
same,"Treatment-related TEAE, Alopecia, Grade 3/4",[2],0 n (%)
same,"Treatment-related TEAE, Alopecia, Grade 5",[2],0 n (%)
same,"Treatment-related TEAE, Alopecia, Total",[2],42 (27.8) n (%)
same,"Treatment-related TEAE, Anemia, Grade 1",[2],13 (8.6) n (%)
same,"Treatment-related TEAE, Anemia, Grade 2",[2],28 (18.5) n (%)
same,"Treatment-related TEAE, Anemia, Grade 3/4",[2],21 (13.9) n (%)
same,"Treatment-related TEAE, Anemia, Grade 5",[2],0 n (%)
same,"Treatment-related TEAE, Anemia, Total",[2],62 (41.1) n (%)
same,"Treatment-related TEAE, Any AE, Grade 1",[2],27 (17.9) n (%)
same,"Treatment-related TEAE, Any AE, Grade 2",[2],55 (36.4) n (%)
same,"Treatment-related TEAE, Any AE, Grade 3/4",[2],54 (35.8) n (%)
same,"Treatment-related TEAE, Any AE, Grade 5",[2],2 (1.3) n (%)
same,"Treatment-related TEAE, Any AE, Total",[2],138 (91.4) n (%)
same,"Treatment-related TEAE, Constipation, Grade 1",[2],13 (8.6) n (%)
same,"Treatment-related TEAE, Constipation, Grade 2",[2],10 (6.6) n (%)
same,"Treatment-related TEAE, Constipation, Grade 3/4",[2],0 n (%)
same,"Treatment-related TEAE, Constipation, Grade 5",[2],0 n (%)
same,"Treatment-related TEAE, Constipation, Total",[2],23 (15.2) n (%)
same,"Treatment-related TEAE, Diarrhea, Grade 1",[2],21 (13.9) n (%)
same,"Treatment-related TEAE, Diarrhea, Grade 2",[2],4 (2.6) n (%)
same,"Treatment-related TEAE, Diarrhea, Grade 3/4",[2],2 (1.3) n (%)
same,"Treatment-related TEAE, Diarrhea, Grade 5",[2],0 n (%)
same,"Treatment-related TEAE, Diarrhea, Total",[2],27 (17.9) n (%)
same,"Treatment-related TEAE, Fatigue, Grade 1",[2],23 (15.2) n (%)
same,"Treatment-related TEAE, Fatigue, Grade 2",[2],25 (16.6) n (%)
same,"Treatment-related TEAE, Fatigue, Grade 3/4",[2],12 (7.9) n (%)
same,"Treatment-related TEAE, Fatigue, Grade 5",[2],0 n (%)
same,"Treatment-related TEAE, Fatigue, Total",[2],60 (39.7) n (%)
same,"Treatment-related TEAE, Headache, Grade 1",[2],28 (18.5) n (%)
same,"Treatment-related TEAE, Headache, Grade 2",[2],4 (2.6) n (%)
same,"Treatment-related TEAE, Headache, Grade 3/4",[2],0 n (%)
same,"Treatment-related TEAE, Headache, Grade 5",[2],0 n (%)
same,"Treatment-related TEAE, Headache, Total",[2],32 (21.2) n (%)
same,"Treatment-related TEAE, Leukopenia, Grade 1",[2],5 (3.3) n (%)
same,"Treatment-related TEAE, Leukopenia, Grade 2",[2],23 (15.2) n (%)
same,"Treatment-related TEAE, Leukopenia, Grade 3/4",[2],9 (6.0) n (%)
same,"Treatment-related TEAE, Leukopenia, Grade 5",[2],0 n (%)
same,"Treatment-related TEAE, Leukopenia, Total",[2],37 (24.5) n (%)
same,"Treatment-related TEAE, Nausea, Grade 1",[2],65 (43.0) n (%)
same,"Treatment-related TEAE, Nausea, Grade 2",[2],26 (17.2) n (%)
same,"Treatment-related TEAE, Nausea, Grade 3/4",[2],1 (0.7) n (%)
same,"Treatment-related TEAE, Nausea, Grade 5",[2],0 n (%)
same,"Treatment-related TEAE, Nausea, Total",[2],92 (60.9) n (%)
same,"Treatment-related TEAE, Neutropenia, Grade 1",[2],6 (4.0) n (%)
same,"Treatment-related TEAE, Neutropenia, Grade 2",[2],19 (12.6) n (%)
same,"Treatment-related TEAE, Neutropenia, Grade 3/4",[2],31 (20.5) n (%)
same,"Treatment-related TEAE, Neutropenia, Grade 5",[2],0 n (%)
same,"Treatment-related TEAE, Neutropenia, Total",[2],56 (37.1) n (%)
same,"Treatment-related TEAE, Thrombocytopenia, Grade 1",[2],16 (10.6) n (%)
same,"Treatment-related TEAE, Thrombocytopenia, Grade 2",[2],4 (2.6) n (%)
same,"Treatment-related TEAE, Thrombocytopenia, Grade 3/4",[2],9 (6.0) n (%)
same,"Treatment-related TEAE, Thrombocytopenia, Grade 5",[2],0 n (%)
same,"Treatment-related TEAE, Thrombocytopenia, Total",[2],29 (19.2) n (%)
same,"Treatment-related TEAE, Vomiting, Grade 1",[2],38 (25.2) n (%)
same,"Treatment-related TEAE, Vomiting, Grade 2",[2],12 (7.9) n (%)
same,"Treatment-related TEAE, Vomiting, Grade 3/4",[2],1 (0.7) n (%)
same,"Treatment-related TEAE, Vomiting, Grade 5",[2],0 n (%)
same,"Treatment-related TEAE, Vomiting, Total",[2],51 (33.8) n (%)
